Where a SMILES comes first, the peptide text is derived from it. Bridges are numbered along the chain shown (N, C = ends). [ ]: non-standard residue; d: D form. ξ: configuration not given here. Bta = N[C@@H](Cc1csc2ccccc12)C(=O)O; Hyp = O=C(O)[C@@H]1C[C@@H](O)CN1; NMeF = CN[C@@H](Cc1ccccc1)C(=O)O; NMeNle = CCCC[C@H](NC)C(=O)O; NMeM = CN[C@@H](CCSC)C(=O)O; hSer = N[C@@H](CCO)C(=O)O; NMeA = CN[C@@H](C)C(=O)O; Orn = NCCC[C@H](N)C(=O)O; Dab = NCC[C@H](N)C(=O)O; ξC = NC(CS)C(=O)O
target: T1, Human PD-L1/PD-1 (Homo sapiens, UniProt Q9NZQ7); assay: HTRF Human PD-L1/PD-1 binding assay (PD-1-Ig/PD-L1-His); settings: PD-L1-His 10 nM, PD-1-Ig 20 nM; class symbol; read-out: HTRF Human PD-L1/PD-1 Binding Assay IC50 Range
T1 construct: TVMV protease cleavage site (C); made in house; host or cells: HEK293T cells
Method in brief: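 Truncated Fc-fused human PD-1 (aa 25-167) at 20 nM and His-tagged PD-L1 (aa 18-239) at 10 nM final are used, with peptides preincubated 15 min with PD-L1. Detection uses europium-cryptate anti-Ig and APC anti-His antibodies; 665/620 nm ratio.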

T1 sequence (Q9NZQ7 with tags, fused parts or gaps): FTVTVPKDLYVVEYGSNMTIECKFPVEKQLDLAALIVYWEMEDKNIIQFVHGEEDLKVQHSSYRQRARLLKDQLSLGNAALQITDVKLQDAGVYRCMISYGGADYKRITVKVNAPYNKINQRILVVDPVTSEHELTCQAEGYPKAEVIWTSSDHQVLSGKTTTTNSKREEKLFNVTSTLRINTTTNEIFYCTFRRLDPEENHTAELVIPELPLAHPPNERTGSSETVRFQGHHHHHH

Row | IC50 [nM] | SMILES
1 | 1 to 9.9 | CCCC[C@H]1C(=O)N(C)[C@@H](CCCC)C(=O)N[C@@H](CC(C)C)C(=O)NC(C(=O)NCC(N)=O)CSCC(=O)N[C@@H](Cc2ccc(O)cc2)C(=O)N(C)[C@@H](C)C(=O)N[C@@H](CC(N)=O)C(=O)N2CCC[C@H]2C(=O)N[C@@H](CC(N)=O)C(=O)N[C@@H](CC(C)C)C(=O)N2CCC[C@H]2C(=O)N[C@@H](Cc2c[nH]c3ccccc23)C(=O)N[C@@H](CO)C(=O)N[C@@H](Cc2c[nH]c3ccccc23)C(=O)N1C (stereo partly shown) [Example 9159] ({CH2CO}-Y[NMeA]NPNLPWSW[NMeNle][NMeNle]L[ξC]G-NH2; thioether N-14)
2 | 10 to 99.9 | CCCC[C@H]1C(=O)N(C)[C@@H](CCCC)C(=O)N[C@@H](CC(C)C)C(=O)NC(C(=O)NCC(N)=O)CSCC(=O)N[C@@H](Cc2ccc(O)cc2)C(=O)N(C)[C@@H](C)C(=O)N[C@@H](CC(N)=O)C(=O)N2CCC[C@H]2C(=O)N[C@@H](CC(N)=O)C(=O)N[C@@H](CC(C)C)C(=O)N2CCC[C@H]2C(=O)N[C@@H](Cc2csc3ccccc23)C(=O)N[C@@H](CO)C(=O)N[C@@H](Cc2c[nH]c3ccccc23)C(=O)N1C (stereo partly shown) [Example 9160] ({CH2CO}-Y[NMeA]NPNLP[Bta]SW[NMeNle][NMeNle]L[ξC]G-NH2; thioether N-14)
3 | 1 to 9.9 | CCCC[C@H]1C(=O)N(C)[C@@H](CCCC)C(=O)N[C@@H](CC(C)C)C(=O)NC(C(=O)NCC(N)=O)CSCC(=O)N[C@@H](Cc2ccc(O)cc2)C(=O)N(C)[C@@H](C)C(=O)N[C@@H](CC(N)=O)C(=O)N2CCC[C@H]2C(=O)N[C@@H](CC(N)=O)C(=O)N[C@@H](CC(C)C)C(=O)N2CCC[C@H]2C(=O)N[C@@H](Cc2c[nH]c3ccccc23)C(=O)N[C@@H](CO)C(=O)N[C@@H](Cc2c[nH]c3ccccc23)C(=O)N1C (stereo partly shown) [Example 9161] ({CH2CO}-Y[NMeA]NPNLPWSW[NMeNle][NMeNle]L[ξC]G-NH2; thioether N-14)
4 | 1 to 9.9 | CCCC[C@H]1C(=O)N(C)[C@@H](CCCC)C(=O)N[C@@H](CCN)C(=O)NC(C(=O)NCC(N)=O)CSCC(=O)N[C@@H](Cc2ccc(O)cc2)C(=O)N(C)[C@@H](C)C(=O)N[C@@H](CC(N)=O)C(=O)N2CCC[C@H]2C(=O)N[C@@H](CC(N)=O)C(=O)N[C@@H](CC(C)C)C(=O)N2CCC[C@H]2C(=O)N[C@@H](Cc2c[nH]c3ccccc23)C(=O)N[C@@H](CO)C(=O)N[C@@H](Cc2c[nH]c3ccccc23)C(=O)N1C (stereo partly shown) [Example 9162] ({CH2CO}-Y[NMeA]NPNLPWSW[NMeNle][NMeNle][Dab][ξC]G-NH2; thioether N-14)
5 | 1 to 9.9 | CCCC[C@H]1C(=O)N(C)[C@@H](CCCC)C(=O)N[C@@H](CCN)C(=O)NC(C(=O)NCC(N)=O)CSCC(=O)N[C@@H](Cc2ccc(O)cc2)C(=O)N(C)[C@@H](C)C(=O)N[C@@H](CC(N)=O)C(=O)N2CCC[C@H]2C(=O)N[C@@H](CC(N)=O)C(=O)N[C@@H](CC(C)C)C(=O)N2CCC[C@H]2C(=O)N[C@@H](Cc2csc3ccccc23)C(=O)N[C@@H](CO)C(=O)N[C@@H](Cc2c[nH]c3ccccc23)C(=O)N1C (stereo partly shown) [Example 9163] ({CH2CO}-Y[NMeA]NPNLP[Bta]SW[NMeNle][NMeNle][Dab][ξC]G-NH2; thioether N-14)
6 | 1 to 9.9 | CCCC[C@H]1C(=O)N(C)[C@@H](CCCC)C(=O)N[C@@H](CCN)C(=O)NC(C(=O)NCC(N)=O)CSCC(=O)N[C@@H](Cc2ccc(O)cc2)C(=O)N(C)[C@@H](C)C(=O)N[C@@H](CC(N)=O)C(=O)N2CCC[C@H]2C(=O)N[C@@H](CC(N)=O)C(=O)N[C@@H](CC(C)C)C(=O)N2C[C@H](O)C[C@H]2C(=O)N[C@@H](Cc2c[nH]c3ccccc23)C(=O)N[C@@H](CO)C(=O)N[C@@H](Cc2c[nH]c3ccccc23)C(=O)N1C (stereo partly shown) [Example 9164] ({CH2CO}-Y[NMeA]NPNL[Hyp]WSW[NMeNle][NMeNle][Dab][ξC]G-NH2; thioether N-14)
7 | 1 to 9.9 | CCCC[C@H]1C(=O)N(C)[C@@H](CCCC)C(=O)N[C@@H](CCN)C(=O)NC(C(=O)NCC(N)=O)CSCC(=O)N[C@@H](Cc2ccc(O)cc2)C(=O)N(C)[C@@H](C)C(=O)N[C@@H](CC(N)=O)C(=O)N2CCC[C@H]2C(=O)N[C@@H](CC(N)=O)C(=O)N[C@@H](CC(C)C)C(=O)N2C[C@H](O)C[C@H]2C(=O)N[C@@H](Cc2c[nH]c3ccccc23)C(=O)N[C@@H](CO)C(=O)N[C@@H](Cc2csc3ccccc23)C(=O)N1C (stereo partly shown) [Example 9165] ({CH2CO}-Y[NMeA]NPNL[Hyp]WS[Bta][NMeNle][NMeNle][Dab][ξC]G-NH2; thioether N-14)
8 | 1000 to 10000 | CSCC[C@H]1C(=O)N2C[C@H](O)C[C@H]2C(=O)N[C@@H](CC(=O)O)C(=O)N[C@@H](C(C)C)C(=O)N(C)[C@@H](Cc2ccccc2)C(=O)N[C@@H](Cc2ccc(O)cc2)C(=O)N2C[C@H](O)C[C@H]2C(=O)N[C@@H](Cc2c[nH]c3ccccc23)C(=O)N[C@@H](Cc2ccc(O)cc2)C(=O)N[C@@H](CC(C)C)C(=O)N[C@H](C(=O)NCC(N)=O)CSCC(=O)N[C@@H](Cc2ccccc2)C(=O)N(C)[C@@H](Cc2ccccc2)C(=O)N1C [Example 9166] ({CH2CO}-F[NMeF][NMeM][Hyp]DV[NMeF]Y[Hyp]WYLCG-NH2; thioether N-13)

Continued, compound first:

Row | SMILES | IC50 [nM]
9 | CCCC[C@H]1C(=O)N(C)[C@@H](CCCC)C(=O)N[C@@H](CCCNC(=N)N)C(=O)NC(C(=O)NCC(N)=O)CSCC(=O)N[C@@H](Cc2ccc(O)cc2)C(=O)N(C)[C@@H](C)C(=O)N[C@@H](Cc2cnc[nH]2)C(=O)N2CCC[C@H]2C(=O)N[C@@H](CC(N)=O)C(=O)N[C@@H](CC(C)C)C(=O)N2C[C@H](O)C[C@H]2C(=O)N[C@@H](Cc2c[nH]c3ccccc23)C(=O)N[C@@H](CO)C(=O)N[C@@H](Cc2csc3ccccc23)C(=O)N1C (stereo partly shown) [Example 9147] ({CH2CO}-Y[NMeA]HPNL[Hyp]WS[Bta][NMeNle][NMeNle]R[ξC]G-NH2; thioether N-14) | 1 to 9.9
10 | CCCC[C@H]1C(=O)N(C)[C@@H](CCCC)C(=O)N[C@@H](CCCNC(=N)N)C(=O)NC(C(=O)NCC(N)=O)CSCC(=O)N[C@@H](Cc2ccc(O)cc2)C(=O)N(C)[C@@H](C)C(=O)N[C@@H](CC(N)=O)C(=O)N2CCC[C@H]2C(=O)N[C@@H](CCO)C(=O)N[C@@H](CC(C)C)C(=O)N2CCC[C@H]2C(=O)N[C@@H](Cc2c[nH]c3ccccc23)C(=O)N[C@@H](CO)C(=O)N[C@@H](Cc2c[nH]c3ccccc23)C(=O)N1C (stereo partly shown) [Example 9148] ({CH2CO}-Y[NMeA]NP[hSer]LPWSW[NMeNle][NMeNle]R[ξC]G-NH2; thioether N-14) | 1000 to 10000
11 | CCCC[C@H]1C(=O)N(C)[C@@H](CCCC)C(=O)N[C@@H](CCCNC(=N)N)C(=O)NC(C(=O)NCC(N)=O)CSCC(=O)N[C@@H](Cc2ccc(O)cc2)C(=O)N(C)[C@@H](C)C(=O)N[C@@H](CC(N)=O)C(=O)N2CCC[C@H]2C(=O)N[C@@H](CCO)C(=O)N[C@@H](CC(C)C)C(=O)N2C[C@H](O)C[C@H]2C(=O)N[C@@H](Cc2c[nH]c3ccccc23)C(=O)N[C@@H](CO)C(=O)N[C@@H](Cc2csc3ccccc23)C(=O)N1C (stereo partly shown) [Example 9150] ({CH2CO}-Y[NMeA]NP[hSer]L[Hyp]WS[Bta][NMeNle][NMeNle]R[ξC]G-NH2; thioether N-14) | 1 to 9.9
12 | CCCC[C@H]1C(=O)N(C)[C@@H](CCCC)C(=O)N[C@@H](CCCN)C(=O)NC(C(=O)NCC(N)=O)CSCC(=O)N[C@@H](Cc2ccc(O)cc2)C(=O)N(C)[C@@H](C)C(=O)N[C@@H](CC(N)=O)C(=O)N2CCC[C@H]2C(=O)N[C@@H](CC(N)=O)C(=O)N[C@@H](CC(C)C)C(=O)N2CCC[C@H]2C(=O)N[C@@H](Cc2c[nH]c3ccccc23)C(=O)N[C@@H](CO)C(=O)N[C@@H](Cc2c[nH]c3ccccc23)C(=O)N1C (stereo partly shown) [Example 9155] ({CH2CO}-Y[NMeA]NPNLPWSW[NMeNle][NMeNle][Orn][ξC]G-NH2; thioether N-14) | 1 to 9.9
13 | CCCC[C@H]1C(=O)N(C)[C@@H](CCCC)C(=O)N[C@@H](CCCN)C(=O)NC(C(=O)NCC(N)=O)CSCC(=O)N[C@@H](Cc2ccc(O)cc2)C(=O)N(C)[C@@H](C)C(=O)N[C@@H](CC(N)=O)C(=O)N2CCC[C@H]2C(=O)N[C@@H](CC(N)=O)C(=O)N[C@@H](CC(C)C)C(=O)N2CCC[C@H]2C(=O)N[C@@H](Cc2c[nH]c3ccccc23)C(=O)N[C@@H](CO)C(=O)N[C@@H](Cc2csc3ccccc23)C(=O)N1C (stereo partly shown) [Example 9156] ({CH2CO}-Y[NMeA]NPNLPWS[Bta][NMeNle][NMeNle][Orn][ξC]G-NH2; thioether N-14) | 1 to 9.9
14 | CCCC[C@H]1C(=O)N(C)[C@@H](CCCC)C(=O)N[C@@H](CCCN)C(=O)NC(C(=O)NCC(N)=O)CSCC(=O)N[C@@H](Cc2ccc(O)cc2)C(=O)N(C)[C@@H](C)C(=O)N[C@@H](CC(N)=O)C(=O)N2CCC[C@H]2C(=O)N[C@@H](CC(N)=O)C(=O)N[C@@H](CC(C)C)C(=O)N2C[C@H](O)C[C@H]2C(=O)N[C@@H](Cc2c[nH]c3ccccc23)C(=O)N[C@@H](CO)C(=O)N[C@@H](Cc2c[nH]c3ccccc23)C(=O)N1C (stereo partly shown) [Example 9157] ({CH2CO}-Y[NMeA]NPNL[Hyp]WSW[NMeNle][NMeNle][Orn][ξC]G-NH2; thioether N-14) | 1 to 9.9
15 | CCCC[C@H]1C(=O)N(C)[C@@H](CCCC)C(=O)N[C@@H](CCCN)C(=O)NC(C(=O)NCC(N)=O)CSCC(=O)N[C@@H](Cc2ccc(O)cc2)C(=O)N(C)[C@@H](C)C(=O)N[C@@H](CC(N)=O)C(=O)N2CCC[C@H]2C(=O)N[C@@H](CC(N)=O)C(=O)N[C@@H](CC(C)C)C(=O)N2C[C@H](O)C[C@H]2C(=O)N[C@@H](Cc2c[nH]c3ccccc23)C(=O)N[C@@H](CO)C(=O)N[C@@H](Cc2csc3ccccc23)C(=O)N1C (stereo partly shown) [Example 9158] ({CH2CO}-Y[NMeA]NPNL[Hyp]WS[Bta][NMeNle][NMeNle][Orn][ξC]G-NH2; thioether N-14) | 1 to 9.9

same assay, conditions: PD-L1-His 10 nM, PD-1-Ig 20 nM; read-out: HTRF Human PD-L1/PD-1 Binding Assay IC50

Row | SMILES | IC50 [nM]
16 | CCCC[C@H]1C(=O)N(C)[C@@H](CCCC)C(=O)N[C@@H](CCCNC(=N)N)C(=O)NC(C(=O)NCC(N)=O)CSCC(=O)N[C@@H](Cc2ccc(O)cc2)C(=O)N(C)[C@@H](C)C(=O)N[C@@H](CC(N)=O)C(=O)N2CCC[C@H]2C(=O)N[C@@H](CCO)C(=O)N[C@@H](CC(C)C)C(=O)N2CCC[C@H]2C(=O)N[C@@H](Cc2c[nH]c3ccccc23)C(=O)N[C@@H](CO)C(=O)N[C@@H](Cc2csc3ccccc23)C(=O)N1C (stereo partly shown) [Example 9149] ({CH2CO}-Y[NMeA]NP[hSer]LPWS[Bta][NMeNle][NMeNle]R[ξC]G-NH2; thioether N-14) | 1000
